Measurements: PubChem BioAssay AID2060623 (Molecular Pharmacology Branch, DTP, NCI, 2025)
“And” between values parts separate entries of the source, which are not always exact repeats. Identical values can stand only once.

Test system: 227483-062-R1-J1-PDC complex spheroids with HUVEC/MSC, viability
Assay: Anticancer human tumor 227483-062-R1-J1-PDC patient-derived pancreatic carcinoma cell line growth inhibition [CLK]
Settings: for viability, T/C: stronger effect = lower value
Source text: A high-throughput screen of multi-cell type tumor spheroids was designed to identify active combinations of […] and targeted small molecules. Complex spheroids include a stromal component modeled by human endothelial cells (HUVEC) and fibroblasts modeled by human mesenchymal stem cells (MSCs). The concentration ranges selected for each drug and investigational agent were based upon clinically achievable concentrations if the clinical Cmax of the agent was known.
Compounds. The drugs and investigational agents: cirtuvivint (SM08502; NSC835563), CC-671 (NSC850746), vemurafenib (NSC761431), tapotoclax (NSC804041), sotorasib (NSC818433), adagrasib (NSC831453), MRTX-1133 (NSC836407), BAY2416964 (NSC825713), copanlisib (NSC816437), inavolisib (NSC800729), abemaciclib (NSC768073), osimertinib (NSC779217), entinostat (NSC756642), eltanexor (KPT-8602, NSC794443), venetoclax (NSC766270), ceralasertib (NSC777638), bortezomib (NSC756655), olaparib (NSC753686), talazoparib (NSC767125), alisertib (NSC759677), peposertib (NSC802822), gemcitabine (NSC613327), 5-fluorouracil (NSC19893), SN-38 (NSC673596), oxaliplatin (NSC266046), paclitaxel (NSC125973), and doxorubicin (NSC123127), were obtained from the National Cancer Institute (NCI) Developmental Therapeutics Program Chemical Repository. The FDA-approved anticancer drug set is available from the Developmental Therapeutics Program at https://dtp.cancer.gov/organization/dscb/obtaining/available plates.htm. […] The stock solutions were prepared in dimethyl sulfoxide (DMSO, Sigma-Aldrich, St. Louis, MO, cat. D2650), except for the platinum complexes which were prepared in saline (Quality Biological, Gaithersburg, MD, cat. 114-055-101), at 800-fold the tested concentration and stored at -70 degrees C prior to their use. All drugs and investigational agents were tested over a range starting from a high concentration at or near the clinical Cmax and decreasing in half-log increments. If the clinical Cmax for an agent had not been determined, the highest concentration tested was 10 microM.
Cell Culture. All cells were maintained in an incubator at 37 degrees C and 5% CO2 with 95% humidity. The PDC lines were cultured according to standard operating procedures established by the NCI PDMR. Briefly, all PDCs were thawed and cultured in Matrigel-coated flasks prepared with a working solution of 1X Ham's F-12 nutrient mix, without supplementation (Invitrogen, Waltham, MA, cat. 11765054), 100 U/mL penicillin-streptomycin (Invitrogen, cat. 15140122), and 2.5% Matrigel (Corning Inc., Corning, NY, cat. 354248) for the first three passages. The 947758-054-R-J2-PDC line was cultured in 6B/Colon 1A media, which includes advanced DMEM/F-12 (Thermo Fisher Scientific, cat. 12634028), 10 mM HEPES (Thermo Fisher Scientific, cat. 15630080), 1X GlutaMAX supplement (Thermo Fisher Scientific, cat. 35050061), 0.1 mg/mL primocin (InvivoGen, cat. ant-pm-2), 10% defined fetal bovine serum, heat inactivated (HyClone Laboratories Inc., cat. SH30070.03HI), 1.25 mM N-Acetyl-L-cysteine (Sigma-Aldrich, cat. A9165), 10 mM nicotinamide (Sigma-Aldrich, cat. N0636), 1X B-27 supplement (Thermo Fisher Scientific, cat. 17504044), 1X N-2 supplement (Thermo Fisher Scientific, cat. 17502048), and 10 microM Y-27632 dihydrochloride (Tocris Bioscience, cat. 1254). The 876862-298-R-J1-PDC was cultured in 6E media, which includes all 6B/Colon 1A media components plus 50% L-WRN conditioned media (ATCC, cat. CRL-3276), 50 ng/mL recombinant human EGF recombinant protein (hEGF; Thermo Fisher Scientific, cat. PHG0311), 10 ng/mL recombinant human fibroblast growth factor 10 (hGFG-10; PeproTech, cat. 100-26), 1 ng/mL recombinant human fibroblast growth factor 2 (hFGF-2; PeproTech, cat. 100-18B), and 1 µM prostaglandin E2 (PGE2; Tocris, cat. 2296). The 227483-062-R1-J1-PDC line was cultured in Panc media, containing all 6E components except hFGF-2, with the addition of 500 nM SB-431542 (Selleckchem, cat. S1067) and 10 nM gastrin (Tocris, cat. 3006). […]
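Also: spheroids exposed to compounds for seven days before readout.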
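For viability, T/C in this document: percent of DMSO vehicle control luminescence as 100% viability.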

For CC(=O)O[C@H]1C(=O)[C@@]2(C)[C@H]([C@H](OC(=O)c3ccccc3)[C@]3(O)C[C@H](OC(=O)[C@H](O)[C@@H](NC(=O)c4ccccc4)c4ccccc4)C(C)=C1C3(C)C)[C@]1(OC(C)=O)CO[C@@H]1C[C@@H]2O, the viability, T/C (compound 0.0316 µM) was 37.1% and 25.6%, the viability, T/C (compound 0.1 µM) was 28.5% and 24% and the viability, T/C (compound 0.316 µM) was 28.2% and 29.5%. The viability, T/C (compound 1 µM) was 37.5% and 31.8%, the viability, T/C (compound 3.16 µM) was 50.2% and 38.9% and the viability, T/C (compound 10 µM) was 60.8% and 52.3%. The IC50 (curve of compound) was < 31.6 nM.

COc1ccc([C@@H](O)c2cc(-c3ncnc4cc(N5CCOCC5)ccc34)c(F)cc2Cl)nn1 was tested, and the viability, T/C (compound 0.0316 µM) was 102% and 90.1%, the viability, T/C (compound 0.1 µM) was 101% and 86% and the viability, T/C (compound 0.316 µM) was 94.7% and 86.4%. For the same compound, the viability, T/C (compound 1 µM) was 95.4% and 98.6%, the viability, T/C (compound 3.16 µM) was 92.6% and 80.2% and the viability, T/C (compound 10 µM) was 92.5% and 71%. The IC50 (curve of compound) was > 10000 nM.

In the case of COc1cccc2c1C(=O)c1c(O)c3c(c(O)c1C2=O)CC(O)(C(=O)CO)CC3OC1CC(N)C(O)C(C)O1 (stereo not drawn), the viability, T/C (compound 0.0316 µM) is reported as 90% and 75.6%, the viability, T/C (compound 0.1 µM) is reported as 108% and 58% and the viability, T/C (compound 0.316 µM) is reported as 54.2% and 42.7%. For the same compound, the viability, T/C (compound 1 µM) was 34.5% and 24.4%, the viability, T/C (compound 3.16 µM) was 7.31% and 2.77% and the viability, T/C (compound 10 µM) was 8.24% and 9.84%. For the same compound, the IC50 (curve of compound) was 483 nM and 188 nM.

With C=CC(=O)N1CCN(c2nc(=O)n(-c3c(C)ccnc3C(C)C)c3nc(-c4c(O)cccc4F)c(F)cc23)C(C)C1 (stereo not drawn) + CN1CCN(c2cc(C(=O)Nc3cc4cc(-c5cnn(C)c5)ccc4cn3)ccn2)CC1 the IC50 (curve of first compound, second compound 0.0316 µM) was > 10000 nM, the IC50 (curve of first compound, second compound 0.1 µM) was > 10000 nM and the IC50 (curve of first compound, second compound 0.316 µM) was < 31.6 nM. For the same compound, the IC50 (curve of first compound, second compound 1 µM) was < 31.6 nM, the IC50 (curve of first compound, second compound 3.16 µM) was < 31.6 nM and the IC50 (curve of first compound, second compound 10 µM) was < 31.6 nM. The viability, T/C (second compound 0.0316 µM, first compound 0.0316 µM) was 90.4%, the viability, T/C (second compound 0.0316 µM, first compound 0.1 µM) was 97.5% and the viability, T/C (second compound 0.0316 µM, first compound 0.316 µM) was 94.7%. The viability, T/C (second compound 0.0316 µM, first compound 1 µM) was 104%, the viability, T/C (second compound 0.0316 µM, first compound 3.16 µM) was 104% and the viability, T/C (second compound 0.0316 µM, first compound 10 µM) was 85.5%. For the same compound, the viability, T/C (second compound 0.1 µM, first compound 0.0316 µM) was 63.2%, the viability, T/C (second compound 0.1 µM, first compound 0.1 µM) was 68.1% and the viability, T/C (second compound 0.1 µM, first compound 0.316 µM) was 63.1%. For the same compound, the viability, T/C (second compound 0.1 µM, first compound 1 µM) was 76.8%, the viability, T/C (second compound 0.1 µM, first compound 3.16 µM) was 66.4% and the viability, T/C (second compound 0.1 µM, first compound 10 µM) was 52.7%. For the same compound, the viability, T/C (second compound 0.316 µM, first compound 0.0316 µM) was 6.84%, the viability, T/C (second compound 0.316 µM, first compound 0.1 µM) was 6.59% and the viability, T/C (second compound 0.316 µM, first compound 0.316 µM) was 5.21%. It also gave a viability, T/C (second compound 0.316 µM, first compound 1 µM) of 7.81%, a viability, T/C (second compound 0.316 µM, first compound 3.16 µM) of 5.13% and a viability, T/C (second compound 0.316 µM, first compound 10 µM) of 3.55%. It also gave a viability, T/C (second compound 1 µM, first compound 0.0316 µM) of 3.36%, a viability, T/C (second compound 1 µM, first compound 0.1 µM) of 2.83% and a viability, T/C (second compound 1 µM, first compound 0.316 µM) of 2.54%. It also gave a viability, T/C (second compound 1 µM, first compound 1 µM) of 3.57%, a viability, T/C (second compound 1 µM, first compound 3.16 µM) of 6.05% and a viability, T/C (second compound 1 µM, first compound 10 µM) of 3.88%. For the same compound, the viability, T/C (second compound 3.16 µM, first compound 0.0316 µM) was 3.58%, the viability, T/C (second compound 3.16 µM, first compound 0.1 µM) was 3.65% and the viability, T/C (second compound 3.16 µM, first compound 0.316 µM) was 5.09%. For the same compound, the viability, T/C (second compound 3.16 µM, first compound 1 µM) was 5.88%, the viability, T/C (second compound 3.16 µM, first compound 3.16 µM) was 6.54% and the viability, T/C (second compound 3.16 µM, first compound 10 µM) was 6.07%. The viability, T/C (second compound 10 µM, first compound 0.0316 µM) was 3.12%, the viability, T/C (second compound 10 µM, first compound 0.1 µM) was 2.35% and the viability, T/C (second compound 10 µM, first compound 0.316 µM) was 4.11%. It also gave a viability, T/C (second compound 10 µM, first compound 1 µM) of 3.93%, a viability, T/C (second compound 10 µM, first compound 3.16 µM) of 6.11% and a viability, T/C (second compound 10 µM, first compound 10 µM) of 3.94%.
